According to patent publication US20060019907A1, “Guggulsterone: an inhibitor of nuclear factor - kappaB and IkappaBalpha kinase activation and uses thereof” (Research Development Foundation, priority 2004, published 2006):

What was measured:
Akt = Akt activation in U937 cells, Western blot; type: cell-based, human; details: 10 μM
Protocol: (§1) Western blot analysis. Thirty to fifty micrograms of cytoplasmic, nuclear or whole cell protein was resolved on 10% SDS-PAGE gel, transferred to a nitrocellulose membrane, blocked with 5% non-fat milk, and probed with specific antibodies as per manufacturer's recommended protocol. The blots were washed, exposed to HRP-conjugated secondary antibodies for 1 h, and detected by ECL reagent (Amersham Pharmacia Biotechnology, Piscataway, N.J.). The bands were quantitated using a Personal Densitometer Scan v1.30 using Imagequant software version 3.3 (Molecular Dynamics).

U937 cells = assay: Thymidine incorporation assay; type: cell-based, human; details: 72 h
Protocol: Thymidine incorporation assay. The antiproliferative effects of guggulsterone were also monitored by the thymidine incorporation method. For this, 5000 cells in 100 μL medium were cultured in triplicate in 96-well plates in the presence or absence of guggulsterone for 72 hours. At 6 hours before the completion of experiment, cells were pulsed with 0.5 μCi (0.0185 MBq) ^3H-thymidine, and the uptake of ^3H-thymidine was monitored by means of a Matrix-9600 β-counter (Packard Instruments, Downers Grove, Ill.).

IKK = assay: TNF-induced IKK activation, immune complex kinase assay; type: cell-based, human; details: H1299
Protocol: IKK Assay: To determine the effect of guggulsterone on TNF-induced IKK activation, IKK was analyzed by a method essentially as described previously (Shishodia et al., 2003). Briefly, IKK complex was precipitated from whole-cell extracts with antibody to IKKα and IKKβ, assayed in kinase assay using GST-IκBα (1-54) as a substrate, and resolved on 10% polyacrylamide gel; the radioactive bands were visualized using a PHOSPHORIMAGER™. To determine the total amounts of IKKα and IKKβ in each sample, 30 μg of the whole-cell extract protein was resolved on a 7.5% polyacrylamide gel and analyzed by Western blot using antibody against IKKα and IKKβ.

IκBα [1] = assay: TNF-dependent IκBα degradation and phosphorylation, Western blot; type: cell-based, human; details: H1299; 50 μM, 4 hours, 0.1 nM TNF
Protocol: Western Blot Analysis: To determine the effect of guggulsterone on TNF-dependent IκBα phosphorylation, IκBα degradation, p65 translocation and p65 phosphorylation, cytoplasmic extracts were prepared as previously described (Majumdar et al., 2001) from H1299 (2×10^6/ml) pretreated with 50 μM guggulsterone for 4 h and then exposed to 0.1 nM TNF for various times. Thirty micrograms of cytoplasmic protein was resolved on 10% SDS-PAGE gel, transferred to a nitrocellulose membrane, blocked with 5% non-fat milk, and probed with specific antibody against IκBα, posphorylated IκBα, p65 and phosphorylated p65. To determine the expression of cyclin D1, COX-2, MMP-9, clAP-1, xlAP, TRAF1, Bcl-2, Bfl-1, cFLIP, and survivin, whole-cell extracts were prepared from treated cells (2×10^6 cells in 2 ml medium), 30-50 μg protein was resolved on SDS-PAGE gel and probed by Western blot with specific antibodies as per manufacturer's recommended protocol. The blots were washed, exposed to HRP-conjugated secondary antibodies for 1 hour, and finally detected by ECL reagent (Amersham Pharmacia Biotech.). The bands were quantitated using a Personal Densitometer Scan v1.30 using IMAGEQUANT™ software version 3.3 (Molecular Dynamics).

IκBα [2] = assay: RANKL-induced IκBα phosphorylation and degradation, Western blot; type: cell-based, mouse; details: RAW 264.7
Protocol: Western blot analysis. To determine the levels of protein expression in the cytoplasm or nucleus, extracts were prepared (Majumder and Aggarwal, 2001) and fractionated by SDS-polyacrylamide gel electrophoresis (PAGE). After electrophoresis, the proteins were electrotransferred to nitrocellulose membranes, blotted with each antibody, and detected by ECL regent (Amersham, Piscataway, N.J.). The bands obtained were quantitated using NIH imaging software (NIH, Bethesda, Md.).

[3] = test system: caspase 8, cytochrome c, caspase 3, PARP; assay: Caspase activation, cytochrome c release and PARP cleavage, Western blot; type: cell-based, human; details: U937; 10 μM
Protocol: as §1
Measurement of cytochrome c release. To determine the effect of guggulsterone on cytochrome c release, cells were treated with guggulsterone as indicated and then the cytosolic extracts were prepared as described (Yang, 1997). Briefly, the cells were washed with PBS, resuspended in the buffer containing 0.25 M sucrose, 30 mM Tris-HCl (pH 7.9), 1 mM EDTA, 1 mM PMSF, 2 mM sodium orthovanadate, 10 mM NaF, 2 μg/ml leupeptin, and 2 μg/ml aprotinin and then homogenized gently with a glass Dounce homogenizer for 20 strokes. The homogenates were centrifuged at 2000 rpm for 10 min to remove nuclei, and the supernatants were centrifuged at 14,000 rpm for 30 min to remove mitochondria and other insoluble fragments. The supernatants were again centrifuged as above to ensure complete removal of mitochondria. Protein ([…]) was subjected to 15% SDS-PAGE, and then Western blot analysis was performed using anti-cytochrome c antibody.
PARP cleavage assay. For detection of cleavage products of PARP, whole-cell extracts were prepared by subjecting guggulsterone-treated cells to lysis in lysis buffer (20 mM Tris, pH 7.4; 250 mM NaCl; 2 mM EDTA, pH 8.0; 0.1% Triton-X 100; 0.01 μg/ml aprotinin; 0.005 μg/ml leupeptin; 0.4 mM PMSF; and 4 mM NaVO4). Lysates were spun at 14000 rpm for 10 min to remove insoluble material, resolved by 10% SDS PAGE, and probed with PARP antibodies.

JNK = JNK assay in MKK4 mutants and wild type cells; type: cell-based; details: 10 μM
Protocol: JNK kinase assay. To determine the effect of guggulsterone on the kinase activity of JNK, JNK complex from whole-cell extracts was precipitated with antibody against JNK1, followed by treatment with protein A/G-Sepharose beads (Pierce, Rockford, Ill.). After 2 h of incubation, the beads were washed with lysis buffer and then assayed in kinase assay mixture containing 50 mM HEPES (pH 7.4), 20 mM MgCl2, 2 mM dithiothreitol, 20 μCi of [γ-^32P]ATP, 10 μM unlabeled ATP, and 2 μg of substrate GST-c-Jun (1-79). The immunocomplex was incubated at 30° C. for 30 min and then boiled with SDS sample buffer for 5 min. Finally, the protein was resolved on 10% SDS-PAGE, the gel was dried, and the radioactive bands were visualized using the PhosphorImager. To determine the total amount of JNK1 in each sample, whole-cell extracts were subjected to Western blot analysis using anti-JNK1 antibody.

[4] = 50 μM, 4 h pre-incubation, 10 nM RANKL

CC=C1C(=O)C[C@H]2[C@@H]3CCC4=CC(=O)CC[C@]4(C)[C@H]3CC[C@]12C [guggulsterone, 4,17(20)-pregnadiene-3,16-dione]
Akt activation (Akt): suppression of Akt-activation | proliferation of U937 cells, 3H-thymidine incorporation (U937 cells): inhibits proliferation in U937 cells | TNF-induced IKK activation (IKK; 50 μM, 4 h, 0.1 nM TNF): completely suppressed this activation | expression of IKKα and IKKβ proteins (IKK; whole cell extracts, immunoblot): had no direct effect on the expression of either IKKα | TNF-induced IκBα degradation (IκBα [1]): TNF had no effect on IκBα degradation | TNF-induced IκBα phosphorylation (IκBα [1]): almost completely suppressed IκBα phosphorylation | phosphorylation of IκBα by GS alone (IκBα [2]): did not result in phosphorylation of IκBα | RANKL-induced IκBα degradation (IκBα [2]; [4]): suppressed RANKL-induced IκBα degradation | RANKL-induced phosphorylation of IκBα (IκBα [2]; [4]): eliminated the RANKL-induced phosphorylation | expression of IκBα (IκBα to β-actin ratio) (IκBα [2]; GS treatment): down-regulates the expression of IκBα | caspase 3 activation and PARP cleavage [3]: activation of caspase 3 and PARP cleavage | caspase 8 activation (receptor-mediated apoptosis) [3]: activation of caspase 8 | mitochondrial cytochrome c release (non-receptor mediated apoptosis) [3]: mitochondrial cytochrome c release | guggulsterone induced JNK activation, dependence on MKK4 (JNK): MKK4 is required for guggulsterone induced JNK activation
